Compound in the assay: Clc1ccc2c(N3CCN(CCCN4CCN(c5ccnc6cc(Cl)ccc56)CC4)CC3)ccnc2c1 [piperaquine]
As to the method: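 Kenyan Plasmodium falciparum field isolates (2008-2021) were tested in a SYBR Green I growth-inhibition assay, either immediately ex vivo (fresh samples) or in vitro after culture adaptation. Cultures were at 1% parasitemia and 2% hematocrit, incubated with serial drug dilutions for 72 h at 37 °C (5% O2, 5% CO2), then read by fluorescence. IC50 was fitted by non-linear regression of the dose-response curve.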
Take KOM 21/05/0278: the IC50 growth inhibition was 0.0027 µg/mL.

As to KDH 15/04/1616, the IC50 growth inhibition amounted to 0.028 µg/mL. The figure for KDH 21/02/0198 is 0.0345 µg/mL; for KCH 10/06/119 it is 0.0127 µg/mL.

Consider MGT 15/06/0090, for which the IC50 growth inhibition came out at 0.0343 µg/mL. Regarding MDH 12/01/0067, the IC50 growth inhibition is 0.0107 µg/mL.

In the case of KDH 12/11/923, the IC50 growth inhibition was determined as 0.0145 µg/mL.

Take KDH 16/07/1832: the IC50 growth inhibition was 0.00427 µg/mL. MDH 18/09/0008: the IC50 growth inhibition came out at 0.00325 µg/mL. Then KDH 11/10/733, with 5.01 µg/mL; and KDH 15/06/1657, with 0.00996 µg/mL. The figure for KCH 17/09/373 is 0.00701 µg/mL. The figure for KDH 14/05/1402 is 0.0119 µg/mL; for MDH 16/08/153 it is 0.00762 µg/mL; for MDH 19/01/0031 it is 0.0262 µg/mL. In the case of KCH 16/07/365, the IC50 growth inhibition worked out at 0.0312 µg/mL. The figure for KSI 21/04/0062 is 0.0102 µg/mL; for MGT 21/08/0119 it is 0.0896 µg/mL.

Turning to KDH 10/12/535, the IC50 growth inhibition came to 0.0114 µg/mL. KDH 14/05/1400: the IC50 growth inhibition came to 0.027 µg/mL.

With MGT 14/03/0007, the IC50 growth inhibition turned out to be 0.0064 µg/mL. For MDH 18/08/003, the IC50 growth inhibition is 0.00381 µg/mL. The figure for KSI 10/11/118 is 0.0157 µg/mL; for KDH 19/07/0120 it is 0.00745 µg/mL.

Turning to MGT 21/03/0108, the IC50 growth inhibition was found to be 0.0078 µg/mL. Then KDH 19/12/0155, with 0.0208 µg/mL; and 601-272, with 0.0205 µg/mL; and KOM 21/05/0262, with 0.0794 µg/mL. Turning to KDH 20/01/0159, the IC50 growth inhibition is 0.0288 µg/mL. The figure for KOM 16/08/0627 is 0.0067 µg/mL; for KSI 16/08/916 it is 0.0148 µg/mL; for KCH 14/10/283 it is 0.00595 µg/mL. KDH 14/05/1379: the IC50 growth inhibition amounted to 0.0283 µg/mL. The figure for KOM 15/04/398 is 0.00975 µg/mL.

KCH 15/05/310: the IC50 growth inhibition worked out at 0.0734 µg/mL.

Turning to KSI 15/10/831, the IC50 growth inhibition is 0.0251 µg/mL. The figure for KOM 20/01/0174 is 0.062 µg/mL. The figure for KSI 13/1/307 is 0.041 µg/mL; for KOM 21/08/0353 it is 0.0415 µg/mL.

Consider KDH 18/07/0010, for which the IC50 growth inhibition is 0.0227 µg/mL. The figure for KSI 14/03/504 is 0.013 µg/mL; for KOM 19/12/155 it is 0.0208 µg/mL. The figure for KDH 15/01/1569 is 0.00462 µg/mL; for KCH 14/03/247 it is 0.0132 µg/mL. The figure for 601-0186 is 0.0596 µg/mL. Regarding KSI 16/07/908, the IC50 growth inhibition was 0.00524 µg/mL. As for KDH 19/02/0077, the IC50 growth inhibition amounted to 0.017 µg/mL. The figure for MDH 10/10/0020 is 0.0168 µg/mL; for MDH 19/01/0029 it is 0.00967 µg/mL; for KSI 18/09/0004 it is 0.00835 µg/mL. The figure for KOM 21/03/0292 is 0.0137 µg/mL. Then KOM 16/07/0616, with 0.0305 µg/mL; and MGT 13/11/0003, with 0.0229 µg/mL. As to 601-006, the IC50 growth inhibition worked out at 0.016 µg/mL. Then 601-0018, with 0.00948 µg/mL.

For the test system KOM 14/09/317, the IC50 growth inhibition was 0.0159 µg/mL.

In the case of KSI 16/07/907, the IC50 growth inhibition turned out to be 0.0116 µg/mL. Then KDH 21/04/0218, with 0.003 µg/mL. 601-0023: the IC50 growth inhibition is 0.0124 µg/mL. The figure for MGT 14/03/0009 is 0.0624 µg/mL; for MDH 13/08/145 it is 0.0248 µg/mL; for KOM 21/05/0280 it is 0.0013 µg/mL. Then KSI 15/04/743, with 0.00175 µg/mL; and MDH 18/08/004, with 0.000851 µg/mL; and KOM 20/01/0165, with 0.0111 µg/mL. For the test system KSI 15/04/730, the IC50 growth inhibition turned out to be 0.00513 µg/mL. Turning to KOM 19/12/0166, the IC50 growth inhibition was 0.0355 µg/mL. Take KOM 14/03/169: the IC50 growth inhibition was 0.015 µg/mL.

In the case of KSI 21/04/0059, the IC50 growth inhibition was 0.208 µg/mL. On to KSI 21/04/0063, for which the IC50 growth inhibition is 0.003 µg/mL. Then KDH 10/02/0354, with 0.016 µg/mL; and KDH 19/12/0157, with 0.0175 µg/mL; and KDH 12/11/928, with 0.00444 µg/mL. The figure for MGT 21/05/115 is 0.0062 µg/mL; for KSI 15/08/809 it is 0.00778 µg/mL.

Turning to KOM 21/08/0340, the IC50 growth inhibition is 0.0382 µg/mL.

Turning to KOM 16/07/0620, the IC50 growth inhibition came to 0.0115 µg/mL. Then KCH 18/07/0001, with 0.0158 µg/mL; and KOM 14/03/189, with 0.018 µg/mL. Consider KDH 18/07/0001, for which the IC50 growth inhibition is 0.00119 µg/mL. The figure for KCH 10/05/0116 is 0.00881 µg/mL; for KCH 16/05/361 it is 0.00583 µg/mL. As to KCH 15/06/316, the IC50 growth inhibition stood at 0.0313 µg/mL.

KSI 17/10/920: the IC50 growth inhibition is 0.00471 µg/mL. Then KDH 10/11/521, with 0.03 µg/mL; and KDH 12/10/918, with 0.0132 µg/mL; and KSI 19/12/0048, with 0.0353 µg/mL. Then KOM 15/03/383, with 0.00453 µg/mL; and KCH 10/04/099, with 0.517 µg/mL; and KOM 13/08/0034, with 0.0232 µg/mL. Then KOM 16/07/0609, with 0.0181 µg/mL; and KSI 19/06/0032, with 0.0281 µg/mL. On to KSI 13/10/422, for which the IC50 growth inhibition amounted to 0.0199 µg/mL.

Take KCH 15/09/334: the IC50 growth inhibition came out at 0.00243 µg/mL. Consider MGT 14/08/034, for which the IC50 growth inhibition was 0.0295 µg/mL. Regarding KSI 12/12/304, the IC50 growth inhibition turned out to be 0.0244 µg/mL.

Turning to KOM 18/07/0005, the IC50 growth inhibition was found to be 0.00889 µg/mL. For 601-0260, the IC50 growth inhibition was 2.46 µg/mL. The figure for KSI 14/02/488 is 0.0157 µg/mL; for KSI 14/03/506 it is 0.0128 µg/mL; for KCH 16/08 369 it is 0.00323 µg/mL. Regarding KSI 15/09/825, the IC50 growth inhibition came out at 0.0121 µg/mL.

For KSI 14/01/474, the IC50 growth inhibition was determined as 0.016 µg/mL. Then KDH 21/02/0173, with 0.0368 µg/mL; and KDH 16/07/1828, with 0.0285 µg/mL; and KOM 21/02/0237, with 0.001 µg/mL. Then KOM 14/04/222, with 0.0193 µg/mL; and MDH 11/12/0052, with 0.00417 µg/mL.

Consider KSI 10/09/096, for which the IC50 growth inhibition is 0.0116 µg/mL. Take KDH 16/07/1824: the IC50 growth inhibition stood at 0.0512 µg/mL.

As to KSI 10/09/106, the IC50 growth inhibition was determined as 0.201 µg/mL. The figure for KOM 13/09/0051 is 0.0206 µg/mL; for KDH 11/9/709 it is 0.55 µg/mL.

Values taken from the supplement of paper PMC9673313.
